The target of one data set is T1, Human 5-HT4(d) (Homo sapiens, UniProt Q13639).
T1 construct: expressed in transfected cells
As to the kind of experiment: Agonist-induced cAMP elevation in human 5-HT4(d) transfected HEK293 cells. Type of data set: cell-based. Particulars: for Emax: HEK293, cAMP production normalized to the amount produced by 1,000 nM serotonin; for EC50: cAMP elevation (HTRF), human 5-HT4(d) transfected HEK293 cells. As for the experimental part:
Human 5-HT4(d) transfected HEK293 cells were established in-house. The cells were grown at 37° C. and 5% CO2 in DMEM supplemented with 10% FCS, 20 mM HEPES (pH 7.4), 200 μg/ml hygromycin B (Gibco), 100 units/ml penicillin and 100 μg/ml streptomycin.
The cells were grown to 60-80% confluence. On the previous day before treatment with compounds dialyzed FCS (Gibco) was substituted for normal and the cells were incubated overnight.
Compounds were prepared in 96-well plates (12.5 μl/well). The cells were harvested with PBS/1 mM EDTA, centrifuged and washed with PBS. At the beginning of the assay, cell pellet was resuspended in DMEM supplemented with 20 mM HEPES, 10 μM pargyline (Sigma) and 1 mM 3-isobutyl-1-methylxanthine (Sigma) at the concentration of 1.6×10^5 cells/ml and left for 15 min at room temperature. The reaction was initiated by addition of the cells into plates (12.5 μl/well). After incubation for 15 min at room temperature, 1% Triton X-100 was added to stop the reaction (25 μl/well) and the plates were left for 30 minutes at room temperature. Homogenous time-resolved fluorescence-based cAMP (Schering) detection was made according to the manufacturer's instruction. ARVOsx multilabel counter (Wallac) was used to measure HTRF (excitation 320 nm, emission 665 nm/620 nm, delay time 50 μs, window time 400 μs).
Data was analyzed based on the ratio of fluorescence intensity of each well at 620 nm and 665 nm followed by cAMP quantification using cAMP standard curve. Enhancement of cAMP production elicited by each compound was normalized to the amount of cAMP produced by 1,000 nM serotonin (Sigma).

SMILES strings stand for the structures.

T1 sequence (Q13639 1-360 isoform Q13639-3): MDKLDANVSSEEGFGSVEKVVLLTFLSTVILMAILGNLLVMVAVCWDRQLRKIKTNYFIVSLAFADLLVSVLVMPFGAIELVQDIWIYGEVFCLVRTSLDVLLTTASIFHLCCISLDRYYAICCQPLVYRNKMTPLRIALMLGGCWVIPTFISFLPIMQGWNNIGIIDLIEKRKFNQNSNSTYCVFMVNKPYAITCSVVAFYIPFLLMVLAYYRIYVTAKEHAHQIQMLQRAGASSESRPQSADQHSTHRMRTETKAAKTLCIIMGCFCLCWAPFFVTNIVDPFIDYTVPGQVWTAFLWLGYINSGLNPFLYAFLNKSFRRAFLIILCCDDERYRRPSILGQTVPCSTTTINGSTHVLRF

In general, Emax refers to the size of the effect at its maximum, as opposed to the concentration needed. For orientation: EC50 means the concentration that produces a half-maximal response. Lower therefore signals higher potency in that assay. In general, melting point refers to the temperature of the solid-liquid transition. Regarding `CC(C)COc1cccc2onc(OCCC3CCN(CC4(C(=O)O)CCOCC4)CC3)c12` [Example 15, 4-[(4-{2-[(4-isobutoxy-1,2-benzisoxazol-3-yl)oxy]ethyl}piperidin-1-yl)methyl]tetrahydro-2H-pyran-4-carboxylic acid], the melting point came out at 117.8 °C. On Human 5-HT4(d), the Emax is 32% and the midpoint of the response, the EC50, lay at 39 nM.
In the same order, the values of `O=C(O)C1(CCN2CCC(COc3noc4cccc(OCC5CCC5)c34)CC2)CCOCC1` [Example 21, 4-{2-[4-({[4-(cyclobutylmethoxy)-1,2-benzisoxazol-3-yl]oxy}methyl)piperidin-1-yl]ethyl}tetrahydro-2H-pyran-4-carboxylic acid] are 223.2 °C, 61% and 5.3 nM.
In the same order, the values of `O[C@H]1CCCC[C@H]1Oc1cccc2onc(OCC3CCN(CC4(O)CCOCC4)CC3)c12` (relative stereo) [Example 40, 4-({4-[({4-[(cis-2-Hydroxycyclohexyloxyl)oxy]-1,2-benzisoxazol-3-yl]oxy)methyl}piperidin-1-yl}-methyl)tetrahydro-2H-pyran-4-ol] are 125.2 °C, 42% and 16 nM.
The matching figures for `CC(C)(CN1CCC(COc2noc3cccc(OCC(F)(F)F)c23)CC1)C(=O)O` [Example 3, 2,2-Dimethyl-3-[4-({[4-(2,2,2-trifluoroethoxy)-1,2-benzisoxazol-3-yl]oxy}methyl)-piperidin-1-yl]propanoic acid]: 129.2 °C, 34% and 0.69 nM.
For `O=C(O)C1(CN2CCC(COc3noc4cccc(O[C@H]5CC[C@@H](CO)CC5)c34)CC2)CCOCC1` [Example 46, 4-[(4-{[(4-{[cis-4-(Hydroxymethyl)cyclohexyl]oxy}-1,2-benzisoxazol-3-yl)oxy]methyl}piperidin-1-yl)-methyl]tetrahydro-2H-pyran-4-carboxylic acid], the melting point was 197.2 °C. On Human 5-HT4(d), this molecule yielded an Emax of 45% and an EC50 of 5.5 nM.
The matching figures for `CC(C)COc1cccc2onc(OCC3CCN(CC4(C(=O)O)CCOCC4)CC3)c12` [Example 10, 4-[(4-{[(4-Isobutoxy-1,2-benzisoxazol-3-yl)oxy]methyl}piperidin-1-yl)methyl]tetrahydro-2H-pyran-4-carboxylic acid]: 153.4 °C, 45% and 3.1 nM.
Molecule `CC(C)COc1cccc2onc(OCC3CCN(CC(C)(C)C(=O)O)CC3)c12` [Example 11, 3-(4-{[(4-Isobutoxy-1,2-benzisoxazol-3-yl)oxy]methyl}piperidin-1-yl)-2,2-dimethylpropanoic acid] displayed a melting point of 123.7 °C. Moreover, on Human 5-HT4(d), the Emax came out at 29% and it took 1.4 nM to reach a half-maximal effect (EC50).
In the same order, the values of `O=C(O)C1(CN2CCC(COc3noc4cccc(OCC5CCC5)c34)CC2)CCCC1` [Example 17, 1-{[4-({[4-(Cyclobutylmethoxy)-1,2-benzisoxazol-3-yl]oxy}methyl)piperidin-1-yl]methyl}cyclo-pentanecarboxylic acid] are 173.8 °C, 41% and 3.6 nM.
`O=C(O)C1(CN2CCC(COc3noc4cccc(OCC5CCC5)c34)CC2)CCOCC1` [Example 18, 4-{[4-({[4-(Cyclobutylmethoxy)-1,2-benzisoxazol-3-yl]oxy}methyl)piperidin-1-yl]methyl}tetrahydro-2H-pyran-4-carboxylic acid] registered a melting point of 175.5 °C. Besides, on Human 5-HT4(d), the Emax is 52% and the EC50 turned out to be 2 nM.
In the same order, the values of `O=C(O)[C@H]1CC[C@H](CN2CCC(COc3noc4cccc(O[C@H]5CC[C@@H](O)CC5)c34)CC2)CC1` [Example 44, trans-4-({4-[({4-[(cis-4-Hydroxycyclohexyl)oxy]-1,2-benzisoxazol-3-yl}oxy)methyl]piperidin-1-yl}-methyl)cyclohexanecarboxylic acid] are 182.7 °C, 55% and 2.4 nM.
The matching figures for `O=C(O)C1(CN2CCC(COc3noc4cccc(OCC(F)(F)F)c34)CC2)CCC1` [Example 2, 1-{[4-({[4-(2,2,2-Trifluoroethoxy)-1,2-benzisoxazol-3-yl]oxy}methyl)piperidin-1-yl]methyl}-cyclobutanecarboxylic acid]: 164.9 °C, 47% and 0.51 nM.
The matching figures for `O=C(O)C1(CCN2CCC(COc3noc4cccc(OCC5CCCC5)c34)CC2)CCOCC1` [Example 23, 4-{2-[4-({[4-(Cyclopentylmethoxy)-1,2-benzisoxazol-3-yl]oxy}methyl)piperidin-1-yl]ethyl}tetrahydro-2H-pyran-4-carboxylic acid]: 212.5 °C, 77% and 22 nM.
`O=C(O)C1(CN2CCC(COc3noc4cccc(OCC5CCCC5)c34)CC2)CCOCC1` [Example 22, 4-{[4-({[4-(Cyclopentylmethoxy)-1,2-benzisoxazol-3-yl]oxy}methyl)piperidin-1-yl]methyl}tetrahydro-2H-pyran-4-carboxylic acid]: the melting point was 185.6 °C. Also, at Human 5-HT4(d), the maximum response (Emax) turned out to be 73% and a half-maximal response (EC50) required 4.4 nM.
The matching figures for `O[C@@H]1CCC[C@@H]1Oc1cccc2onc(OCC3CCN(CC4(O)CCOCC4)CC3)c12` (relative stereo) [Example 36, 4-({4-[({4-[(cis-2-Hydroxycyclopentyl)oxy]-1,2-benzisoxazol-3-yl}oxy)methyl]piperidin-1-yl}methyl)-tetrahydro-2H-pyran-4-ol]: 140.8 °C, 52% and 1.9 nM.
As to `O=C(O)C1(CN2CCC(COc3noc4cccc(O[C@H]5CC[C@@H](CO)CC5)c34)CC2)CCCC1` [Example 48, 1-[(4-{[(4-{[cis-4-(Hydroxymethyl)cyclohexyl]oxy}-1,2-benzisoxazol-3-yl)oxy]methyl}piperidin-1-yl)methyl]cyclopentanecarboxylic acid], the melting point was 188 °C. Also, at Human 5-HT4(d), the Emax came to 43% and the EC50 amounted to 4.3 nM.
The molecule `O=C(O)C1(CN2CCC(CCOc3noc4cccc(OCC(F)(F)F)c34)CC2)CCOCC1` [Example 7, 4-{[4-(2-{[4-(2,2,2-Trifluoroethoxy)-1,2-benzisoxazol-3-yl]oxy}ethyl)piperidin-1-yl]methyl}tetrahydro-2H-pyran-4-carboxylic acid] displayed a melting point of 176.6 °C. At Human 5-HT4(d), this molecule yielded an Emax of 35% and an EC50 of 48 nM.
In the same order, the values of `O=C(O)C1(CN2CCC(CNc3noc4cccc(OCC(F)(F)F)c34)CC2)CCOCC1` [Example 53, 4-{[4-({[4-(2,2,2-Trifluoroethoxy)-1,2-benzisoxazol-3-yl]amino}methyl)piperidin-1-yl]methyl}-tetrahydro-2H-pyran-4-carboxylic acid] are 171.9 °C, 59% and 2.8 nM.
In the same order, the values of `O=C(O)C(F)(F)CN1CCC(COc2noc3cccc(OCC(F)(F)F)c23)CC1` [Example 6, 2,2-Difluoro-3-[4-({[4-(2,2,2-trifluoroethoxy)-1,2-benzisoxazol-3-yl]oxy}methyl)-piperidin-1-yl]propanoic acid] are 227.1 °C, 30% and 20 nM.
In the same order, the values of `O=C(O)C1(CCN2CCC(COc3noc4cccc(OCC(F)(F)F)c34)CC2)CCOCC1` [Example 5, 4-{2-[4-({[4-(2,2,2-Trifluoroethoxy)-1,2-benzisoxazol-3-yl]oxy}methyl)piperidin-1-yl]ethyl}tetrahydro-2H-pyran-4-carboxylic acid] are 220.5 °C, 70% and 2.7 nM.
As to `O=C(O)C1(CN2CCC(COc3noc4cccc(OC5CCOCC5)c34)CC2)CCCCC1` [Example 30, 1-{[4-({[4-(Tetrahydro-2H-pyran-4-yloxy)-1,2-benzisoxazol-3-yl]oxy}methyl)piperidin-1-yl]methyl}-cyclohexanecarboxylic acid], the melting point came to 157.1 °C. Moreover, on Human 5-HT4(d), the Emax was 88% and a half-maximal effect (EC50) was put at 19 nM.
In the same order, the values of `O=C(O)[C@H]1CC[C@H](CN2CCC(COc3noc4cccc(OC5CCOCC5)c34)CC2)CC1` [Example 29, trans-4-{[4-({[4-(Tetrahydro-2H-pyran-4-yloxy)-1,2-benzisoxazol-3-yl]oxy}methyl)piperidin-1-yl]methyl}cyclohexanecarboxylic acid] are 154.6 °C, 70% and 11 nM.

(Values after US8816090B2, “Benzisoxazole derivatives” (Pfizer Inc., priority 2005, dated 2014).)
